Test results from BindingDB's records for doi:10.1016/s0960-894x(00)00312-7 (Signal Pharmaceuticals, 2000).

These compounds were tested against Protein c-Fos/Transcription factor Jun (Homo sapiens, UniProt P05412+P01100) (assay: Inhibition of AP-1 (activator protein-1) mediated transcriptional activation in Jurkat T-cells).
Protein c-Fos/Transcription factor Jun, sequence (P05412 whole entry): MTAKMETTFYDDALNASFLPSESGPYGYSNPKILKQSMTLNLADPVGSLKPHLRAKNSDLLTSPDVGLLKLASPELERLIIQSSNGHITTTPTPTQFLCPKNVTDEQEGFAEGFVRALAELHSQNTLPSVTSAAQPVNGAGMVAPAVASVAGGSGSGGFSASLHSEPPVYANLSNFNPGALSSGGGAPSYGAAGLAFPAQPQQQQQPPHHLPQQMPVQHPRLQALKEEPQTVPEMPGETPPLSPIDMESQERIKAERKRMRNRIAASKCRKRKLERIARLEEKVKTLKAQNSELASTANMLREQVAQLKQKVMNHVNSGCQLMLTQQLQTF
Protein c-Fos/Transcription factor Jun, sequence (P01100 whole entry): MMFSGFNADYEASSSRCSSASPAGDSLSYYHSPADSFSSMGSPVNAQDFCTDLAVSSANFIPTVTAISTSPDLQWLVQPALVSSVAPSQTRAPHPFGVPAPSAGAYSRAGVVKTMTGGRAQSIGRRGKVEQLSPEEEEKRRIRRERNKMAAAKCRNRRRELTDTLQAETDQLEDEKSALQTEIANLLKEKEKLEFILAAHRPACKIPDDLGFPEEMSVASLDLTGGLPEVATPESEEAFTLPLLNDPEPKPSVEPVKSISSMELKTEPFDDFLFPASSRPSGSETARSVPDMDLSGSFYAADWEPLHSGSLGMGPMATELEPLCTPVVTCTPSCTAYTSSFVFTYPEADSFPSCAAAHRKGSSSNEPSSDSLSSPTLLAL

Point of comparison: `CC1=CC(=O)N(Nc2nc(-c3cccs3)ncc2-c2nnn(C)n2)C1=O` [3-methyl-1-(5-(2-methyl-2H-tetrazol-5-yl)-2-(thiophen-2-yl)pyrimidin-4-ylamino)-1H-pyrrole-2,5-dione], IC50 0.2 µM. Against it:
- CC1=CC(=O)N(Nc2nc(-c3cccs3)ncc2C2=NCCO2)C1=O [1-[5-(4,5-Dihydro-oxazol-2-yl)-2-thiophen-2-yl-pyrimidin-4-ylamino]-3-methyl-pyrrole-2,5-dione] — the same, 0.2 µM
- CCOC(=O)c1cnc(-c2cccc(Br)c2)nc1NN1C(=O)C=C(C)C1=O [2-(3-Bromo-phenyl)-4-(3-methyl-2,5-dioxo-2,5-dihydro-pyrrol-1-ylamino)-pyrimidine-5-carboxylic acid ethyl ester] — 3.5-fold higher, 0.7 µM
- CCOC(=O)c1cnc(-c2ccc(F)cc2)nc1N(C)N1C(=O)C=C(C)C1=O [2-(4-Fluoro-phenyl)-4-[methyl-(3-methyl-2,5-dioxo-2,5-dihydro-pyrrol-1-yl)-amino]-pyrimidine-5-carboxylic acid ethyl ester] — 15-fold higher, 3 µM
- CCOC(=O)c1cnc(-c2ccc(OC)cc2)nc1NN1C(=O)C=C(C)C1=O [2-(4-Methoxy-phenyl)-4-(3-methyl-2,5-dioxo-2,5-dihydro-pyrrol-1-ylamino)-pyrimidine-5-carboxylic acid ethyl ester] — 4.5-fold higher, 0.9 µM
- CCOC(=O)c1cnc(S(=O)(=O)c2ccccc2)nc1NN1C(=O)C=C(C)C1=O [2-Benzenesulfonyl-4-(3-methyl-2,5-dioxo-2,5-dihydro-pyrrol-1-ylamino)-pyrimidine-5-carboxylic acid ethyl ester] — 50-fold higher, 10 µM
- CCOC(=O)c1cnc(-c2cc3ccccc3s2)nc1NN1C(=O)C=C(C)C1=O [2-Benzo[b]thiophen-2-yl-4-(3-methyl-2,5-dioxo-2,5-dihydro-pyrrol-1-ylamino)-pyrimidine-5-carboxylic acid ethyl ester] — 20-fold higher, 4 µM
- CCOC(=O)c1cnc(CC2=CCCCC2)nc1NN1C(=O)C=C(C)C1=O [2-Cyclohex-1-enylmethyl-4-(3-methyl-2,5-dioxo-2,5-dihydro-pyrrol-1-ylamino)-pyrimidine-5-carboxylic acid ethyl ester] — 10-fold higher, 2 µM
- CCOC(=O)c1cnc(C2CC2)nc1NN1C(=O)C=C(C)C1=O [2-Cyclopropyl-4-(3-methyl-2,5-dioxo-2,5-dihydro-pyrrol-1-ylamino)-pyrimidine-5-carboxylic acid ethyl ester] — 5-fold higher, 1 µM
- CCOC(=O)c1cnc(CC)nc1NN1C(=O)C=C(C)C1=O [2-Ethyl-4-(3-methyl-2,5-dioxo-2,5-dihydro-pyrrol-1-ylamino)-pyrimidine-5-carboxylic acid ethyl ester] — 50-fold higher, 10 µM
- CCOC(=O)c1cnc(C)nc1NN1C(=O)C=C(C)C1=O [2-Methyl-4-(3-methyl-2,5-dioxo-2,5-dihydro-pyrrol-1-ylamino)-pyrimidine-5-carboxylic acid ethyl ester] — 80-fold higher, 16 µM
- CC1=CC(=O)N(Nc2nc(-c3cccs3)ncc2-c2cc(C)no2)C1=O [3-methyl-1-(5-(3-methylisoxazol-5-yl)-2-(thiophen-2-yl)pyrimidin-4-ylamino)-1H-pyrrole-2,5-dione] — within 1.5-fold, 0.3 µM
- CC1=CC(=O)N(Nc2nc(-c3cccs3)ncc2-c2nc(C)co2)C1=O [3-methyl-1-(5-(4-methyloxazol-2-yl)-2-(thiophen-2-yl)pyrimidin-4-ylamino)-1H-pyrrole-2,5-dione] — the same, 0.2 µM
- CC1=CC(=O)N(Nc2nc(-c3cccs3)ncc2-c2nnc(C)o2)C1=O [3-methyl-1-(5-(5-methyl-1,3,4-oxadiazol-2-yl)-2-(thiophen-2-yl)pyrimidin-4-ylamino)-1H-pyrrole-2,5-dione] — within 1.5-fold, 0.3 µM
- CCOC(=O)c1cnc(C(F)(F)F)nc1NN1C(=O)C=C(c2ccccc2)C1=O [4-(2,5-Dioxo-3-phenyl-2,5-dihydro-pyrrol-1-ylamino)-2-trifluoromethyl-pyrimidine-5-carboxylic acid ethyl ester] — 100-fold higher, 20 µM
- CCOC(=O)c1cnc(-c2csc(C)n2)nc1NN1C(=O)C=C(C)C1=O [4-(3-Methyl-2,5-dioxo-2,5-dihydro-pyrrol-1-ylamino)-2-(2-methyl-thiazol-4-yl)-pyrimidine-5-carboxylic acid ethyl ester] — 40-fold higher, 8 µM
- CCOC(=O)c1cnc(-c2cccc([N+](=O)[O-])c2)nc1NN1C(=O)C=C(C)C1=O [4-(3-Methyl-2,5-dioxo-2,5-dihydro-pyrrol-1-ylamino)-2-(3-nitro-phenyl)-pyrimidine-5-carboxylic acid ethyl ester] — 35-fold higher, 7 µM
- CCOC(=O)c1cnc(-c2ccc(C(F)(F)F)cc2)nc1NN1C(=O)C=C(C)C1=O [4-(3-Methyl-2,5-dioxo-2,5-dihydro-pyrrol-1-ylamino)-2-(4-trifluoromethyl-phenyl)-pyrimidine-5-carboxylic acid ethyl ester] — 2-fold higher, 0.4 µM
- CCOC(=O)c1cnc(-c2ccc(C)s2)nc1NN1C(=O)C=C(C)C1=O [4-(3-Methyl-2,5-dioxo-2,5-dihydro-pyrrol-1-ylamino)-2-(5-methyl-thiophen-2-yl)-pyrimidine-5-carboxylic acid ethyl ester] — the same, 0.2 µM
- CCOC(=O)c1cnc(SC)nc1NN1C(=O)C=C(C)C1=O [4-(3-Methyl-2,5-dioxo-2,5-dihydro-pyrrol-1-ylamino)-2-methylsulfanyl-pyrimidine-5-carboxylic acid ethyl ester] — the same, 0.2 µM
- CCOC(=O)c1cnc(-c2ccccc2)nc1NN1C(=O)C=C(C)C1=O [4-(3-Methyl-2,5-dioxo-2,5-dihydro-pyrrol-1-ylamino)-2-phenyl-pyrimidine-5-carboxylic acid ethyl ester] — 2-fold lower, 0.1 µM
- CC1=CC(=O)N(Nc2nc(-c3cccs3)ncc2C#N)C1=O [4-(3-Methyl-2,5-dioxo-2,5-dihydro-pyrrol-1-ylamino)-2-thiophen-2-yl-pyrimidine-5-carbonitrile] — 25-fold higher, 5 µM
- CCOC(=O)c1cnc(C(F)(F)F)nc1NN1C(=O)C=C(C)C1=O [4-(3-Methyl-2,5-dioxo-2,5-dihydro-pyrrol-1-ylamino)-2-trifluoromethyl-pyrimidine-5-carboxylic acid ethyl ester] — 5-fold higher, 1 µM
- CCOC(=O)c1cnc(-c2ccccc2)nc1N(C(C)=O)N1C(=O)C=C(C)C1=O [4-[Acetyl-(3-methyl-2,5-dioxo-2,5-dihydro-pyrrol-1-yl)-amino]-2-phenyl-pyrimidine-5-carboxylic acid ethyl ester] — 20-fold higher, 4 µM
- CCOC(=O)c1cnc(-c2cc(Cl)nc(Cl)c2)nc1NN1C(=O)C=C(C)C1=O [ethyl 2-(2,6-dichloropyridin-4-yl)-4-(3-methyl-2,5-dioxo-2H-pyrrol-1(5H)-ylamino)pyrimidine-5-carboxylate] — 10-fold higher, 2 µM
- CCOC(=O)c1cnc(-c2cc(Cl)cc(Cl)c2)nc1NN1C(=O)C=C(C)C1=O [ethyl 2-(3,5-dichlorophenyl)-4-(3-methyl-2,5-dioxo-2H-pyrrol-1(5H)-ylamino)pyrimidine-5-carboxylate] — within 1.5-fold, 0.3 µM
- CCOC(=O)c1cnc(-n2nc(C)cc2C)nc1NN1C(=O)C=C(C)C1=O [ethyl 2-(3,5-dimethyl-1H-pyrazol-1-yl)-4-(3-methyl-2,5-dioxo-2H-pyrrol-1(5H)-ylamino)pyrimidine-5-carboxylate] — 50-fold higher, 10 µM
- CCOC(=O)c1cnc(-c2cccc(OC)c2)nc1NN1C(=O)C=C(C)C1=O [ethyl 2-(3-methoxyphenyl)-4-(3-methyl-2,5-dioxo-2H-pyrrol-1(5H)-ylamino)pyrimidine-5-carboxylate] — 25-fold higher, 5 µM
- CCOC(=O)c1cnc(-c2ccc(Cl)cc2)nc1NN1C(=O)C=C(C)C1=O [ethyl 2-(4-chlorophenyl)-4-(3-methyl-2,5-dioxo-2H-pyrrol-1(5H)-ylamino)pyrimidine-5-carboxylate] — within 1.5-fold, 0.3 µM
- CCOC(=O)c1cnc(-c2ccc(F)cc2)nc1NN1C(=O)C=C(C)C1=O [ethyl 2-(4-fluorophenyl)-4-(3-methyl-2,5-dioxo-2H-pyrrol-1(5H)-ylamino)pyrimidine-5-carboxylate] — 3.5-fold higher, 0.7 µM
- CCOC(=O)c1cnc(-c2ccc(Cl)s2)nc1NN1C(=O)C=C(C)C1=O [ethyl 2-(5-chlorothiophen-2-yl)-4-(3-methyl-2,5-dioxo-2H-pyrrol-1(5H)-ylamino)pyrimidine-5-carboxylate] — within 1.5-fold, 0.3 µM
- CCOC(=O)c1cnc(C(=O)c2ccco2)nc1NN1C(=O)C=C(C)C1=O [ethyl 2-(furan-2-carbonyl)-4-(3-methyl-2,5-dioxo-2H-pyrrol-1(5H)-ylamino)pyrimidine-5-carboxylate] — 3.5-fold higher, 0.7 µM
- CCOC(=O)c1cnc(Cc2ccccc2)nc1NN1C(=O)C=C(C)C1=O [ethyl 2-benzyl-4-(3-methyl-2,5-dioxo-2H-pyrrol-1(5H)-ylamino)pyrimidine-5-carboxylate] — 35-fold higher, 7 µM
- CCOC(=O)c1cnc(CC)nc1N(C)N1C(=O)C=C(C)C1=O [ethyl 2-ethyl-4-(methyl(3-methyl-2,5-dioxo-2H-pyrrol-1(5H)-yl)amino)pyrimidine-5-carboxylate] — 50-fold higher, 10 µM
- CCOC(=O)c1cnc(C(C)(C)C)nc1NN1C(=O)C=C(C)C1=O [ethyl 2-tert-butyl-4-(3-methyl-2,5-dioxo-2H-pyrrol-1(5H)-ylamino)pyrimidine-5-carboxylate] — 5-fold higher, 1 µM
- CCOC(=O)c1cnc(C(F)(F)F)nc1NN1C(=O)C=CC1=O [ethyl 4-(2,5-dioxo-2H-pyrrol-1(5H)-ylamino)-2-(trifluoromethyl)pyrimidine-5-carboxylate] — 50-fold higher, 10 µM
- CCOC(=O)c1cnc(C(F)(F)F)nc1NN1C(=O)C(C)=C(C)C1=O [ethyl 4-(3,4-dimethyl-2,5-dioxo-2H-pyrrol-1(5H)-ylamino)-2-(trifluoromethyl)pyrimidine-5-carboxylate] — 50-fold higher, 10 µM
- CCOC(=O)c1cnc(Sc2ccccc2)nc1NN1C(=O)C=C(C)C1=O [ethyl 4-(3-methyl-2,5-dioxo-2,5-dihydro-1H-pyrrol-1-ylamino)-2-(phenylthio)pyrimidine-5-carboxylate] — 5-fold higher, 1 µM
- CCOC(=O)c1cnc(-c2ccncc2)nc1NN1C(=O)C=C(C)C1=O [ethyl 4-(3-methyl-2,5-dioxo-2H-pyrrol-1(5H)-ylamino)-2-(pyridin-4-yl)pyrimidine-5-carboxylate] — 30-fold higher, 6 µM
- CCOC(=O)c1cnc(-c2cnc3ccccc3c2)nc1NN1C(=O)C=C(C)C1=O [ethyl 4-(3-methyl-2,5-dioxo-2H-pyrrol-1(5H)-ylamino)-2-(quinolin-3-yl)pyrimidine-5-carboxylate] — 30-fold higher, 6 µM
